Measured values from patent US20250283019A1, “NEURO-INTEGRATED BIOREACTOR SYSTEM FOR STUDYING JOINT PAIN AND TREATMENT THEREOF” (University of Pittsburgh - Of the Commonwealth System of …, priority 2022, published 2025).

What was measured:
[1] = test system: sensory neurons; assay: Sensitization of sensory neurons in fura-2 Ca2+ imaging and whole cell patch recordings; format: cell-based
From the text: Macrophages can be added to any of the tissue scaffolds in the bioreactor to assess their contribution to joint pain modeled by the neu-microJoint bioreactor. M1 macrophages are a classically activated pro-inflammatory cell type that express pro-inflammatory cytokines, chemokines and many other substances. M2 macrophages are alternatively activated and have an anti-inflammatory pro-tissue regenerative phenotype.

[2] = test system: DRG neurons; assay: Spiking of DRG neurons on MEAs in the central chamber of the neu-microJoint bioreactor in response to KCl; format: cell-based; conditions: 30 mM KCl; DRG neurons cultured on MEAs for 4 days; screened with 10, 30 and 50 mM; little to no spontaneous activity at baseline
Protocol: Acutely dissociated DRG neurons are plated in the neural chamber and cultured in 2D at a density of […] to enable recording of neural activity, for example with microelectrodes or MEAs embedded in the floor of the chamber.
To enable recording of neural activity, sensory neurons are plated on a high-density microelectrode array (MEA) embedded in the floor of the neuron bioreactor chamber. Additionally, over the course of 28 days, the neurites reach the synovium, bone, and adipose chambers. In addition, they are functional, as assessed by the ability to maintain physiological cytosolic Ca^2+ concentrations (˜100 nM), a healthy resting membrane potential <−50 mV, and overshooting action potentials in response to physiological stimuli.
DRG neurons cultured on MEAs for 4 days in the central chamber of the neu-microJoint bioreactor were screened with increasing concentrations of KCl (10, 30, and 50 mM) to detect spiking.

[3] = test system: cartilage (in the upper part of the bone/cartilage chamber); assay: IL1β OA model in the neu-microJoint bioreactor: mRNA expression in cartilage; format: cell-based, human; conditions: IL1β applied to the synovium flow only; cartilage not directly exposed; 10 ng/mL for 1 week
From the text: For the tissue scaffolds containing synovial cells, adipose cells, chondrocytes, or osteocytes, human mesenchymal stem cells (MSCs, >98% positive to CD73, 90, 105 and >99% negative to CD31, 34, 45, capable of colony formation and trilineage differentiation) or human iPSCs-derived MSCs (iMPCs) are encapsulated in photo-crosslinked gelatin scaffolds, and then subjected to tissue specific media to generate individual synovium, adipose, osteochondral tissues, as well as an additional individual macrophage component. After maturation, these tissue constructs are assembled with the chamber body inserts as described herein and inserted into the outer chambers of the neu-microJoint bioreactor, the fluid conduits are tapped and connected to suitable tubing, and tissue culture medium is pumped through the device to perfuse the tissue scaffolds. […]
Since IL1β that is used to generate the OA model is only applied to the flow of synovium, it indirectly stimulates the other tissues. […] As this may be part of the OA process, retrograde tracers may be used to distinguish activity in neurons innervating the synovium chamber from those innervating other chambers, and corresponding neural activity is monitored.

| Compound | sensitization of sensory neurons [1] | also measured |
| --- | --- | --- |
| tumor necrosis factor (TNF)-α | sensitize sensory neurons | – |
| CCCCC[C@H](O)/C=C/[C@H]1[C@H](O)CC(=O)[C@@H]1C/C=C\CCCC(=O)O [PGE2, prostaglandin E2] | sensitize sensory neurons | – |
| [Cl-].[K+] [KCl] | – | spiking activity of DRG neurons [2]: activity was detected |
| IL1β: cytokine used to trigger OA conditions in the outer chambers | – | ADAMTS 4 mRNA expression in cartilage [3]: significant increases; MMP13 mRNA expression in cartilage [3]: significant increases |
| IL-6: factor generated by M1 macrophages; cytokine | sensitize sensory neurons | – |
